Data from publication PMC9851200, “Multiparameter phenotypic screening for endogenous TFEB and TFE3 translocation identifies novel chemical series modulating lysosome function” (Autophagy, 2022).

Legend:
Format in all cases: binding
[1] = target: kinases (KINOMEscan panel) (Homo sapiens, UniProt Q9P1W9); details: PIM2; NEW KINOMEscan
[2] = target: kinases (KINOMEscan panel) (Homo sapiens, UniProt P06213); details: kinase INSR; NEW KINOMEscan
[3] = target: T1, kinases (KINOMEscan panel) (Homo sapiens, UniProt Q6PHR2); details: kinase ULK3; NEW KINOMEscan
T1 sequence (Q6PHR2 1-472): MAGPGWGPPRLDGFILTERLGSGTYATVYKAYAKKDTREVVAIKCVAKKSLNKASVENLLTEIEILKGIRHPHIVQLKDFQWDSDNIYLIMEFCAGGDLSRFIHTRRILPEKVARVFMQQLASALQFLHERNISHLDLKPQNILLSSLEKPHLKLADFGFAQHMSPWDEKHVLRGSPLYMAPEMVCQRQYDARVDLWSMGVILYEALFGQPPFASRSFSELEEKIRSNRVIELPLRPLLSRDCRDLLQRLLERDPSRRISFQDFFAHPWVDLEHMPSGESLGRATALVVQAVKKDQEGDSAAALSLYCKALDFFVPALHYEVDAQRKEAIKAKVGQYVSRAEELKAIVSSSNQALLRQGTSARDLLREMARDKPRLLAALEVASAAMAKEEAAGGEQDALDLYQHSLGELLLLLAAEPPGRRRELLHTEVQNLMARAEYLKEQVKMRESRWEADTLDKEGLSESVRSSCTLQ

[4] = target: kinases (KINOMEscan panel) (Homo sapiens, UniProt Q04912); details: MST1R; NEW KINOMEscan
kinases (KINOMEscan panel) (Homo sapiens, UniProt Q04912), sequence (Q04912 25-1400): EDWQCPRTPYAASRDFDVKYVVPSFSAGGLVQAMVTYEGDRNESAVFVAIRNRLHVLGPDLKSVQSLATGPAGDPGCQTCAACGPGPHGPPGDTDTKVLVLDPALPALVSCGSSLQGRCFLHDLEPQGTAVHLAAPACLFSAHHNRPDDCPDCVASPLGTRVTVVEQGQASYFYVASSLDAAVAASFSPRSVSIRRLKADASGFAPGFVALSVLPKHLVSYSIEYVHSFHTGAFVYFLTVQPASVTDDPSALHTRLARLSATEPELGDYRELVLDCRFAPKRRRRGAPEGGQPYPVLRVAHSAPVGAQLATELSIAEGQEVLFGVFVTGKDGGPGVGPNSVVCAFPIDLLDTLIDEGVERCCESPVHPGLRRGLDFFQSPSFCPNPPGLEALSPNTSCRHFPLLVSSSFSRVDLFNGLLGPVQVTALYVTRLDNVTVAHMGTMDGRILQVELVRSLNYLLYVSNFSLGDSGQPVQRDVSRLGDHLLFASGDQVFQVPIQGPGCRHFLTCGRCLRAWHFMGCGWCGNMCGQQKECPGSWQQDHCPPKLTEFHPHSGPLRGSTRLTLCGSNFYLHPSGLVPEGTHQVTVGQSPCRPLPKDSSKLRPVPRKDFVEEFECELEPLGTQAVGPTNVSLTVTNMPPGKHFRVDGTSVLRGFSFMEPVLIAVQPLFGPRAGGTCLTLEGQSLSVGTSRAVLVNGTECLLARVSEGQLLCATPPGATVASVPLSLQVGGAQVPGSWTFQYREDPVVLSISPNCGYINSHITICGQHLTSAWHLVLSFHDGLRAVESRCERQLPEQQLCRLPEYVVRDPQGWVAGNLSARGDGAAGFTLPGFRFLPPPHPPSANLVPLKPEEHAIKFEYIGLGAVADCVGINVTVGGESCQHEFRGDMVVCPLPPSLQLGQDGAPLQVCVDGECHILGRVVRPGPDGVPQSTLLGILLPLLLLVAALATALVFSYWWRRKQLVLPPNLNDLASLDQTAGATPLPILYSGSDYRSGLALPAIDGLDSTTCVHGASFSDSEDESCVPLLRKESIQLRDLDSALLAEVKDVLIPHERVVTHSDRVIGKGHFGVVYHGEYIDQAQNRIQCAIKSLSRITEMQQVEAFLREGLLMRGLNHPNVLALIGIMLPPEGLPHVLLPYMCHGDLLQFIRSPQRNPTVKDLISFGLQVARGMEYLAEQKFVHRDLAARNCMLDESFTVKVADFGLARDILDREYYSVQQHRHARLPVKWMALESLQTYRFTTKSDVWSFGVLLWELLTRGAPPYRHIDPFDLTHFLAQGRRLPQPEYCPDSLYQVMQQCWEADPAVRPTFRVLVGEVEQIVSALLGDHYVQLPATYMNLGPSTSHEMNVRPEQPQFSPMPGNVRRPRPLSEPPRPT

[5] = target: T2, kinases (KINOMEscan panel) (Homo sapiens, UniProt Q15835); details: NEW KINOMEscan
T2 sequence (Q15835 1-563): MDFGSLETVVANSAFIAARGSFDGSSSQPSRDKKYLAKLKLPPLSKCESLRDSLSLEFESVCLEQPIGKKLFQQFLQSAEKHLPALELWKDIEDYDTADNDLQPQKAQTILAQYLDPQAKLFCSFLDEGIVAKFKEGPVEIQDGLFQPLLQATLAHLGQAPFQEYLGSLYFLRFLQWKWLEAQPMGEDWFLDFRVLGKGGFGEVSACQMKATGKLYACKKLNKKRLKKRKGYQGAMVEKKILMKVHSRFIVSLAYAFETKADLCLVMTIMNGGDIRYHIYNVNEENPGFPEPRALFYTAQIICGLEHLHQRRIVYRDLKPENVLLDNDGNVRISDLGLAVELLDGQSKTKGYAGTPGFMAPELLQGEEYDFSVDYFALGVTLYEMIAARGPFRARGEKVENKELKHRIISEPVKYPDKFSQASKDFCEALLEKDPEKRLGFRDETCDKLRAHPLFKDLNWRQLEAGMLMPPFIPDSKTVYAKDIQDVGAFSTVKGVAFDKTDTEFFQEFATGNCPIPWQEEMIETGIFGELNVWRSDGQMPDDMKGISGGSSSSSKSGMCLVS

[6] = target: T3, kinases (KINOMEscan panel) (Homo sapiens, UniProt P20794); details: NEW KINOMEscan
T3 sequence (P20794 1-623): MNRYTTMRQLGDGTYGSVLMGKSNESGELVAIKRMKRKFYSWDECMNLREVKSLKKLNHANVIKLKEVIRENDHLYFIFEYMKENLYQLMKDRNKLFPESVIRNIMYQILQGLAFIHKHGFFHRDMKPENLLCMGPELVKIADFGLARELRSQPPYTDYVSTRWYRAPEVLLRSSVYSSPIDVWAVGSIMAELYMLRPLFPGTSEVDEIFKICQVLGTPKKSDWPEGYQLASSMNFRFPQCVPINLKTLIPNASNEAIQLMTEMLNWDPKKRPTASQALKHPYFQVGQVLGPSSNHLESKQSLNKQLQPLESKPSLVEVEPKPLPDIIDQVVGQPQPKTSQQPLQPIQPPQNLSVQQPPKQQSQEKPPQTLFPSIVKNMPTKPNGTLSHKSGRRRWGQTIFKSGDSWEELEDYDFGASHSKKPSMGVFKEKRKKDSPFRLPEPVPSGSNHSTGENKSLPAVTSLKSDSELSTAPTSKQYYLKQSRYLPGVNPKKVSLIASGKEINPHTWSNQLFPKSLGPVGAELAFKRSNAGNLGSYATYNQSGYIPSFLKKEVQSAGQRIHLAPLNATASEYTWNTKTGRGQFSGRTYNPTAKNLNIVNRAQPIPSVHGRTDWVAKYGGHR

[7] = target: kinases (KINOMEscan panel) (Homo sapiens, UniProt P36888, D835Y); details: kinase FLT3(D835Y); NEW KINOMEscan
[8] = target: T4, kinases (KINOMEscan panel) (Homo sapiens, UniProt Q9BRS2); details: RIOK1; NEW KINOMEscan
T4 sequence (Q9BRS2 1-568): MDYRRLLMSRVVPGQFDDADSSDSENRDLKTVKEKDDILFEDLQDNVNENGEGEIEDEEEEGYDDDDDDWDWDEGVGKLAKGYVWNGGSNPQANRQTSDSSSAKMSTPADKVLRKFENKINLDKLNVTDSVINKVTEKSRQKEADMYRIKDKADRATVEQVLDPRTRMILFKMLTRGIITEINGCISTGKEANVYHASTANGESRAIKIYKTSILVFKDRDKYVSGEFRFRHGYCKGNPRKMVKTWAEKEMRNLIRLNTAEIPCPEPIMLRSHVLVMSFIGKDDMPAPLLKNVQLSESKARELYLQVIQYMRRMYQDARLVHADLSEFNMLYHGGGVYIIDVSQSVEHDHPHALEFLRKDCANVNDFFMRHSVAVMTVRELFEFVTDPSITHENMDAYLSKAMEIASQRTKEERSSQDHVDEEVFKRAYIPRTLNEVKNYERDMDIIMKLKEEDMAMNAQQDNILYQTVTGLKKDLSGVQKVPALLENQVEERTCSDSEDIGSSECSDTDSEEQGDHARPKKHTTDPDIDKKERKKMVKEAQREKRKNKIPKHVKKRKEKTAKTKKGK

kinases (KINOMEscan panel) (Homo sapiens, UniProt Q9P1W9), sequence (Q9P1W9 whole entry): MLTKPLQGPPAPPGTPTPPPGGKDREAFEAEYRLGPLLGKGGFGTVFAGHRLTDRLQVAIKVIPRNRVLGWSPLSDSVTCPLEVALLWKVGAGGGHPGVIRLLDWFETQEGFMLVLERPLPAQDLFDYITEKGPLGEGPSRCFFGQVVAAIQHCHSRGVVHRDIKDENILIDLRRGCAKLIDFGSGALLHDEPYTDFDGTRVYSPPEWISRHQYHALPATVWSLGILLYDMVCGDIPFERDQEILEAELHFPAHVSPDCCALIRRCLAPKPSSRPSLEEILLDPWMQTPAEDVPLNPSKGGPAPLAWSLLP
kinases (KINOMEscan panel) (Homo sapiens, UniProt P06213), sequence (P06213 28-1382): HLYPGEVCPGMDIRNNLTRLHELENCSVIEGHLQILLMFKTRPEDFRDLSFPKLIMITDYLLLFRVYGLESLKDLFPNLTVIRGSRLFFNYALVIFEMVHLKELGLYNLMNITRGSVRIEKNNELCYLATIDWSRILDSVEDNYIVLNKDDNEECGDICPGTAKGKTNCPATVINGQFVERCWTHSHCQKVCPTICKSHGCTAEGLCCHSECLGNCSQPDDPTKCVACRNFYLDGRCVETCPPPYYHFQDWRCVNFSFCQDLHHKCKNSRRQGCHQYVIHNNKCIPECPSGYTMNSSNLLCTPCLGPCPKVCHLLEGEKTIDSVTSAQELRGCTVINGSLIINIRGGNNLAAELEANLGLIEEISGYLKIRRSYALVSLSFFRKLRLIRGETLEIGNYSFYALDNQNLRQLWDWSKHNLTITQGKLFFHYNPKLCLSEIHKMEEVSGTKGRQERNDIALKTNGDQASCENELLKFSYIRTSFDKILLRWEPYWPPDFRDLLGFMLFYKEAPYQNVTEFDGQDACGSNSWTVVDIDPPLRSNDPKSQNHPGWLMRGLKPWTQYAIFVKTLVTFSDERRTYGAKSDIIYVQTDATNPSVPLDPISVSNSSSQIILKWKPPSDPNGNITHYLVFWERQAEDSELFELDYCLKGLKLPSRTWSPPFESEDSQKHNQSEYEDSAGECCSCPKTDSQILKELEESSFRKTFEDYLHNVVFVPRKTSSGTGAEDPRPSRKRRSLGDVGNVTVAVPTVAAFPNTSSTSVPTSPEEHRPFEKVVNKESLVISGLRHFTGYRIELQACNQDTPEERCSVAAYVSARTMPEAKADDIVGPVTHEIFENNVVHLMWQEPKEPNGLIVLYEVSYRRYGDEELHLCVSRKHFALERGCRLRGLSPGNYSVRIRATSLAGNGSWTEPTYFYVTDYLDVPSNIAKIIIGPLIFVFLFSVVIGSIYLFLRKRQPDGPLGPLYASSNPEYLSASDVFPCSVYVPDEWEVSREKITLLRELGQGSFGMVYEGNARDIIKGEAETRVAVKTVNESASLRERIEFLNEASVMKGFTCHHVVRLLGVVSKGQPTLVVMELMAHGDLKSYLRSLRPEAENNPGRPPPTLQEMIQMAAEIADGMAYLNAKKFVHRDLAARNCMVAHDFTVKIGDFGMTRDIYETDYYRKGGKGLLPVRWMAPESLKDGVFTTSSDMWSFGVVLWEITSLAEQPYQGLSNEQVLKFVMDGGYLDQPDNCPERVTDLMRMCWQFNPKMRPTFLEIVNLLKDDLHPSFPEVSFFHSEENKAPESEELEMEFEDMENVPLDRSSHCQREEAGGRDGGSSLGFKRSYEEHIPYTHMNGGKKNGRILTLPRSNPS

Cc1cccc(-c2nc(Nc3ccc4nn(C)cc4c3)c3ccccc3n2)n1 [NK167]
KINOMEscan PIM2 [1]: 2
KINOMEscan INSR [2]: 0
KINOMEscan ULK3 [3]: 0
KINOMEscan MST1R [4]: 0
KINOMEscan GRK1 [5]: 37
KINOMEscan MAK or ALPK3 [6]: 0
KINOMEscan FLT3(D835Y) [7]: 0
KINOMEscan RIOK1 [8]: 1

Cc1cccc(-c2nc(N(C)c3ccc4ncsc4c3)c3ccccc3n2)n1 [NK-161]
KINOMEscan PIM2 [1]: 18
KINOMEscan INSR [2]: 2
KINOMEscan ULK3 [3]: 1
KINOMEscan MST1R [4]: 2
KINOMEscan GRK1 [5]: 25
KINOMEscan MAK or ALPK3 [6]: 5
KINOMEscan FLT3(D835Y) [7]: 3
KINOMEscan RIOK1 [8]: 0
